Reference: the NIST ThermoML archive (doi:10.1016/j.jct.2005.02.011)

Legend:
[1] = excess molar enthalpy (molar enthalpy of mixing); xn = mol fraction of the nth substance listed; details: 298.15 K, 101.33 kPa, Liquid
[2] = xn = mol fraction of the nth substance listed; details: 298.15 K, 101.33 kPa, Liquid
[3] = 298.15 K; 101.33 kPa; Liquid

COC(F)(F)C(F)(F)C(F)(F)C(F)(F)F [1-methoxy-nonafluorobutane] + CCOCCO
Details | excess molar enthalpy [kcal/mol] | mass density [kg/m3]
[1], x1 = 0.05001 | 0.0376 | –
[1], x1 = 0.1 | 0.0615 | –
[1], x1 = 0.2 | 0.0937 | –
[1], x1 = 0.3 | 0.117 | –
[1], x1 = 0.4001 | 0.135 | –
[1], x1 = 0.5001 | 0.149 | –
[1], x1 = 0.5501 | 0.153 | –
[1], x1 = 0.6001 | 0.158 | –
[1], x1 = 0.6501 | 0.159 | –
[1], x1 = 0.7 | 0.159 | –
[1], x1 = 0.75 | 0.157 | –
[1], x1 = 0.8 | 0.151 | –
[1], x1 = 0.85 | 0.141 | –
[1], x1 = 0.9 | 0.121 | –
[1], x1 = 0.95 | 0.0866 | –
[1], x1 = 0.9507 | 0.0867 | –
[1], x1 = 0.975 | 0.056 | –
[2], x1 = 0.00503 | – | 929.7
[2], x1 = 0.01079 | – | 934.97
[2], x1 = 0.02102 | – | 944.32
[2], x1 = 0.02987 | – | 952.74
[2], x1 = 0.04002 | – | 961.9
[2], x1 = 0.04998 | – | 970.86
[2], x1 = 0.05985 | – | 979.66
[2], x1 = 0.07003 | – | 988.6
[2], x1 = 0.07976 | – | 997.21
[2], x1 = 0.09179 | – | 1007.4
[2], x1 = 0.09978 | – | 1014.34
[2], x1 = 0.1998 | – | 1094.44
[2], x1 = 0.2999 | – | 1166.16
[2], x1 = 0.3998 | – | 1230.34
[2], x1 = 0.4998 | – | 1288.32
[2], x1 = 0.5999 | – | 1340.92
[2], x1 = 0.6998 | – | 1389.17
[2], x1 = 0.7996 | – | 1433.24
[2], x1 = 0.9003 | – | 1475.39
[2], x1 = 0.9098 | – | 1479.22
[2], x1 = 0.9198 | – | 1482.97
[2], x1 = 0.9304 | – | 1487.24
[2], x1 = 0.9399 | – | 1491.41
[2], x1 = 0.9502 | – | 1495.54
[2], x1 = 0.9587 | – | 1499
[2], x1 = 0.969 | – | 1503.23
[2], x1 = 0.9802 | – | 1507.87
[2], x1 = 0.9901 | – | 1512.09
[2], x1 = 0.9949 | – | 1514.04
[2], x1 = 1 | – | 1516.5

CCOCCO [2-ethoxyethan-1-ol]
Details | mass density [kg/m3]
[3] | 924.92

COC(F)(F)C(F)(F)C(F)(F)C(F)(F)F [1-methoxy-nonafluorobutane] + COCCO
Details | excess molar enthalpy, [1] [kcal/mol] | mass density, [2] [kg/m3]
x1 = 0.00553 | – | 965.99
x1 = 0.01007 | – | 970.85
x1 = 0.02663 | – | 988.18
x1 = 0.02992 | – | 991.62
x1 = 0.03967 | – | 1001.54
x1 = 0.04976 | – | 1011.78
x1 = 0.05 | 0.0487 | –
x1 = 0.05995 | – | 1021.9
x1 = 0.06979 | – | 1031.53
x1 = 0.07991 | – | 1041.28
x1 = 0.08992 | – | 1050.63
x1 = 0.09992 | – | 1059.88
x1 = 0.1 | 0.0727 | –
x1 = 0.1999 | – | 1144.03
x1 = 0.2 | 0.1 | –
x1 = 0.2999 | – | 1215.05
x1 = 0.3 | 0.119 | –
x1 = 0.4 | – | 1275.68
x1 = 0.4001 | 0.133 | –
x1 = 0.5 | 0.144 | –
x1 = 0.5001 | – | 1328.23
x1 = 0.5501 | 0.149 | –
x1 = 0.5997 | – | 1373.83
x1 = 0.6001 | 0.154 | –
x1 = 0.6501 | 0.153 | –
x1 = 0.7001 | 0.153 | 1414.55
x1 = 0.75 | 0.151 | –
x1 = 0.8001 | 0.146 | –
x1 = 0.8005 | – | 1451
x1 = 0.85 | 0.137 | –
x1 = 0.8997 | – | 1483.83
x1 = 0.9 | 0.121 | –
x1 = 0.9106 | – | 1487.37
x1 = 0.9204 | – | 1490.55
x1 = 0.9304 | – | 1493.65
x1 = 0.9403 | – | 1496.79
x1 = 0.95 | 0.0872 | –
x1 = 0.9508 | – | 1500.13
x1 = 0.9604 | – | 1503.16
x1 = 0.971 | – | 1506.5
x1 = 0.975 | 0.0582 | –
x1 = 0.98 | – | 1509.57
x1 = 0.99 | – | 1512.86
x1 = 0.9948 | – | 1514.59
x1 = 1 | – | 1516.5

COCCOCCO [2-(2-methoxyethoxy)ethanol] + COC(F)(F)C(F)(F)C(F)(F)C(F)(F)F
Details | excess molar enthalpy, [1] [kcal/mol] | mass density, [2] [kg/m3]
x2 = 0 | – | 1015.6
x2 = 0.02479 | – | 1031.94
x2 = 0.04975 | – | 1048.37
x2 = 0.05006 | 0.0519 | –
x2 = 0.09963 | – | 1080.8
x2 = 0.1001 | 0.0713 | –
x2 = 0.1498 | – | 1112.38
x2 = 0.1999 | – | 1142.86
x2 = 0.2002 | 0.0873 | –
x2 = 0.2495 | – | 1172.17
x2 = 0.2996 | – | 1200.75
x2 = 0.3003 | 0.0967 | –
x2 = 0.3996 | – | 1254.72
x2 = 0.4003 | 0.102 | –
x2 = 0.4503 | 0.103 | –
x2 = 0.4994 | – | 1304.76
x2 = 0.5003 | 0.103 | –
x2 = 0.5503 | 0.103 | –
x2 = 0.5984 | – | 1351.61
x2 = 0.6003 | 0.103 | –
x2 = 0.6503 | 0.102 | –
x2 = 0.699 | – | 1396.09
x2 = 0.7003 | 0.101 | –
x2 = 0.7499 | – | 1417.68
x2 = 0.7998 | – | 1438.09
x2 = 0.8002 | 0.0953 | –
x2 = 0.85 | – | 1458.09
x2 = 0.8999 | – | 1477.55
x2 = 0.9001 | 0.0773 | –
x2 = 0.9501 | 0.055 | 1496.84
x2 = 0.9749 | – | 1506.46

COC(F)(F)C(F)(F)C(F)(F)C(F)(F)F [1-methoxy-nonafluorobutane] + COCCOCCO
Details | mass density [kg/m3]
[2], x1 = 1 | 1516.5

COCCOCCOC [2,5,8-trioxanonane] + COC(F)(F)C(F)(F)C(F)(F)C(F)(F)F
Details | mass density [kg/m3]
[2], x2 = 0 | 938.62

COCCO [2-methoxyethan-1-ol] + COC(F)(F)C(F)(F)C(F)(F)C(F)(F)F
Details | mass density [kg/m3]
[2], x2 = 0 | 960.01

COCCOCCOC [2,5,8-trioxanonane]
Details | mass density [kg/m3]
[3] | 938.62

CCOCCO [2-ethoxyethan-1-ol] + COC(F)(F)C(F)(F)C(F)(F)C(F)(F)F
Details | mass density [kg/m3]
[2], x2 = 0 | 924.92

COCCO [2-methoxyethan-1-ol]
Details | mass density [kg/m3]
[3] | 960.01

CCCCOCCO [2-butoxyethan-1-ol] + COC(F)(F)C(F)(F)C(F)(F)C(F)(F)F
Details | mass density [kg/m3]
[2], x2 = 0 | 896.25

COC(F)(F)C(F)(F)C(F)(F)C(F)(F)F [1-methoxy-nonafluorobutane] + COCCOCCOC
Details | excess molar enthalpy [kcal/mol] | mass density [kg/m3]
[1], x1 = 0.05001 | 0.0399 | –
[1], x1 = 0.1 | 0.066 | –
[1], x1 = 0.15 | 0.081 | –
[1], x1 = 0.2 | 0.0883 | –
[1], x1 = 0.25 | 0.0919 | –
[1], x1 = 0.3 | 0.0915 | –
[1], x1 = 0.35 | 0.0883 | –
[1], x1 = 0.4001 | 0.0839 | –
[1], x1 = 0.5001 | 0.0705 | –
[1], x1 = 0.6001 | 0.0546 | –
[1], x1 = 0.7 | 0.038 | –
[1], x1 = 0.8 | 0.022 | –
[1], x1 = 0.9 | 0.00844 | –
[1], x1 = 0.95 | 0.00265 | –
[2], x1 = 0.02464 | – | 954.08
[2], x1 = 0.0497 | – | 969.75
[2], x1 = 0.1001 | – | 1001.04
[2], x1 = 0.1498 | – | 1031.72
[2], x1 = 0.1998 | – | 1062.36
[2], x1 = 0.2496 | – | 1092.61
[2], x1 = 0.2994 | – | 1122.54
[2], x1 = 0.3493 | – | 1152.22
[2], x1 = 0.3998 | – | 1181.93
[2], x1 = 0.4496 | – | 1210.92
[2], x1 = 0.4998 | – | 1239.78
[2], x1 = 0.5495 | – | 1268.27
[2], x1 = 0.5999 | – | 1296.83
[2], x1 = 0.6499 | – | 1324.79
[2], x1 = 0.6993 | – | 1352.36
[2], x1 = 0.7495 | – | 1380.12
[2], x1 = 0.7996 | – | 1407.65
[2], x1 = 0.8498 | – | 1435.09
[2], x1 = 0.8997 | – | 1462.11
[2], x1 = 0.9498 | – | 1489.22
[2], x1 = 0.9749 | – | 1502.87
[2], x1 = 1 | – | 1516.5

COCCOCCO [2-(2-methoxyethoxy)ethanol]
Details | mass density [kg/m3]
[3] | 1015.6

COC(F)(F)C(F)(F)C(F)(F)C(F)(F)F [1-methoxy-nonafluorobutane]
Details | mass density [kg/m3]
[3] | 1516.5

COC(F)(F)C(F)(F)C(F)(F)C(F)(F)F [1-methoxy-nonafluorobutane] + CCCCOCCO
Details | excess molar enthalpy, [1] [kcal/mol] | mass density, [2] [kg/m3]
x1 = 0.02507 | – | 915.04
x1 = 0.05001 | 0.04 | –
x1 = 0.05002 | – | 932.88
x1 = 0.1 | 0.0726 | –
x1 = 0.1001 | – | 969.14
x1 = 0.1499 | – | 1004.19
x1 = 0.1998 | – | 1038.73
x1 = 0.2 | 0.122 | –
x1 = 0.2497 | – | 1072.68
x1 = 0.2995 | – | 1105.83
x1 = 0.3 | 0.157 | –
x1 = 0.3499 | – | 1138.71
x1 = 0.4001 | 0.18 | –
x1 = 0.41 | – | 1176.96
x1 = 0.4499 | – | 1201.93
x1 = 0.5001 | 0.195 | –
x1 = 0.5155 | – | 1242.24
x1 = 0.5499 | – | 1262.86
x1 = 0.5501 | 0.2 | –
x1 = 0.5999 | – | 1292.53
x1 = 0.6001 | 0.202 | –
x1 = 0.65 | – | 1321.64
x1 = 0.6501 | 0.203 | –
x1 = 0.6999 | – | 1350.17
x1 = 0.7 | 0.2 | –
x1 = 0.7499 | – | 1378.23
x1 = 0.75 | 0.194 | –
x1 = 0.8 | 0.184 | 1405.94
x1 = 0.85 | 0.168 | –
x1 = 0.8502 | – | 1433.58
x1 = 0.9 | 0.142 | –
x1 = 0.9002 | – | 1461.09
x1 = 0.95 | 0.1 | 1488.03
x1 = 0.9749 | – | 1501.9
x1 = 0.975 | 0.0629 | –
x1 = 1 | – | 1516.5

CCCCOCCO [2-butoxyethan-1-ol]
Details | mass density [kg/m3]
[3] | 896.25
